Data taken from patent US12421191B2, “3-hydroxyoxindole derivatives as CRHR2 antagonist” (RaQualia Pharma Inc., priority 2020, dated 2025).

Target: T1, human CRHR2-alpha (Homo sapiens, UniProt Q13324)
T1 construct: host or cells: CHO-K1
T1 sequence (Q13324 1-411): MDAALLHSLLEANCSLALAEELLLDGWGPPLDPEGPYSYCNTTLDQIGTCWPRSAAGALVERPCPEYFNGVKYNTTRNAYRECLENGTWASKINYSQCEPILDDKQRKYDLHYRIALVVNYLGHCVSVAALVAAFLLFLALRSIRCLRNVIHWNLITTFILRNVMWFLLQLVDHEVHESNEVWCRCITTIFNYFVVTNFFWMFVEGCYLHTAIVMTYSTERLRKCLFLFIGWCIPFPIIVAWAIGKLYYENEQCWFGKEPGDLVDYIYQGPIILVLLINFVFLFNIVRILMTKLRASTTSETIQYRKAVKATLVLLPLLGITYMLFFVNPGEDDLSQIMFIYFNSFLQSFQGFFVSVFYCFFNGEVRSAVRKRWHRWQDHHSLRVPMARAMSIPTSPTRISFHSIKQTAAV
Assay: cAMP functional assay for human CRHR2 (LANCE Ultra TR-FRET)
Assay type: cell-based
Settings: inhibition of cAMP production in CHO-K1 cells stably expressing human CRHR2-alpha, EC90 of human urocortin2 as agonist; read-out: IC50 against CRHR2
Procedure: cAMP functional assay for human CRHR2 The ability of the compounds of this invention to inhibit either CRHR2 is assessed by 3′,5′-cyclic adenosine monophosphate (cAMP) production in cells using the LANCE Ultra cAMP assay kit (ParkinElmer), which are designed based on the homogeneous time-resolved fluorescence resonance energy transfer (TR-FRET) immunoassay.
CHO-K1 (Chinese hamster ovary) cells stably expressing human CRHR2-alpha (DiscoveRX, Cat. 95-0048C2) are grown in HAM's F12 media supplemented with 10% fetal bovine serum (FBS), 100 units/mL penicillin G, 100 microg/mL hygromycin and 0.5 microg/mL geneticin at 37° C. in 5% CO2 humidified incubator to 80% confluence. After 7 hours starvation treatment in culture media containing 0.1% FBS, the cells are washed with Hanks balanced salt solution (HBSS) and cryopreserved.
For cAMP assay, frozen cells are thawed and washed with HBSS, followed by resuspending cells in assay buffer (HBSS containing 0.1% bovine serum albumin, 0.5 mM isobutylmethylxanthine and 5 mM Hepes, pH 7.4) at the appropriate concentration for the assay. The cell suspensions are plated on 384-well microplates (Greiner Bio-One) at a density of 4,000 cells per well. After preincubating the cells with various concentrations of the compounds for 30 min at 25° C., an assay buffer containing EC90 concentration of agonist is added and the cells are incubated for 30 min at 25° C. Human urocortin2 (Peptide Institute) is used as agonists for CRHR2. For the termination of assay, europium-labeled cAMP tracer and ULight (registered trademark) dye labeled cAMP antibodies, both prepared with Lance-Ultra cAMP detection reagent (PerkinElmer) are added in the plate and incubate for 60 min at 25° C. After incubation, TR-FRET signal is detected by EnVision plate reader (PerkinElmer). The IC50 values for compounds are calculated from dose-response curves by fitting the percent inhibition using XLfit (ID Business Solutions).

| SMILES | IC50 [nM] |
| --- | --- |
| O=C(N[C@H]1CC[C@H](CN2C(=O)C(O)(c3ccccc3F)c3cccc(F)c32)CC1)c1cc(Cl)cnc1C(F)F (mixture of isomers) [Example 82, 5-chloro-2-(difluoromethyl)-N-((1r,4r)-4-((7-fluoro-3-(2-fluorophenyl)-3-hydroxy-2-oxoindolin-1-yl)methyl)cyclohexyl) nicotinamide] | < 200 |
| O=C(N[C@H]1CC[C@H](CN2C(=O)C(O)(c3ccccc3)c3ccc(Cl)cc32)CC1)c1cc(Cl)cnc1C(F)F (some centres unmarked) [Example 30, 5-chloro-N-((1r,4r)-4-((6-chloro-3-hydroxy-2-oxo-3-phenylindolin-1-yl)methyl)cyclohexyl)-2-(difluoromethyl)nicotinamide] | < 200 |
| Cc1cc(C2(O)C(=O)N(C[C@H]3CC[C@H](NC(=O)c4cc(Cl)cnc4C(F)F)CC3)c3ccccc32)cs1 (some centres unmarked) [Example 130, 5-chloro-2-(difluoromethyl)-N-((1r,4r)-4-((3-hydroxy-3-(5-methylthiophen-3-yl)-2-oxoindolin-1-yl)methyl)cyclohexyl) nicotinamide] | < 200 |
| Cc1cccc2c1C(O)(c1ccccc1F)C(=O)N2C[C@H]1CC[C@H](NC(=O)c2cc(Cl)cnc2C(F)F)CC1 (some centres unmarked) [Example 179, 5-chloro-2-(difluoromethyl)-N-((1r,4r)-4-((3-(2-fluorophenyl)-3-hydroxy-4-methyl-2-oxoindolin-1-yl)methyl)cyclohexyl) nicotinamide] | < 200 |
| COc1cc(C2(O)C(=O)N(C[C@H]3CC[C@H](NC(=O)c4cc(Cl)cnc4C(F)F)CC3)c3ccc(F)cc32)c(F)cn1 (some centres unmarked) [Example 124, 5-chloro-2-(difluoromethyl)-N-((1r,4r)-4-((5-fluoro-3-(5-fluoro-2-methoxypyridin-4-yl)-3-hydroxy-2-oxoindolin-1-yl)methyl)cyclohexyl) nicotinamide] | < 200 |
| O=C(N[C@H]1CC[C@H](CN2C(=O)C(O)(c3ccccc3F)c3ccc(Cl)cc32)CC1)c1cc(Cl)cnc1C(F)F (some centres unmarked) [Example 170, 5-chloro-N-((1r,4r)-4-((6-chloro-3-(2-fluorophenyl)-3-hydroxy-2-oxoindolin-1-yl)methyl)cyclohexyl)-2-(difluoromethyl)nicotinamide] | < 200 |
| COc1ccc2c(c1)N(C[C@H]1CC[C@H](NC(=O)c3cc(Cl)cnc3C(F)F)CC1)C(=O)C2(O)c1ccccc1F (some centres unmarked) [Example 105, 5-chloro-2-(difluoromethyl)-N-((1r,4r)-4-((3-(2-fluorophenyl)-3-hydroxy-6-methoxy-2-oxoindolin-1-yl)methyl)cyclohexyl) nicotinamide] | < 200 |
| O=C(N[C@H]1CC[C@H](CN2C(=O)C(O)(c3ccccc3F)c3c(F)cccc32)CC1)c1cc(Cl)cnc1C(F)F (some centres unmarked) [Example 191, 5-chloro-2-(difluoromethyl)-N-((1r,4r)-4-((4-fluoro-3-(2-fluorophenyl)-3-hydroxy-2-oxoindolin-1-yl)methyl)cyclohexyl) nicotinamide] | < 200 |
| Cc1ncc(Cl)cc1C(=O)N[C@H]1CC[C@H](CN2C(=O)C(O)(c3cccc(F)c3F)c3ccccc32)CC1 (some centres unmarked) [Example 173, 5-chloro-N-((1r,4r)-4-((3-(2,3-difluorophenyl)-3-hydroxy-2-oxoindolin-1-yl)methyl)cyclohexyl)-2-methylnicotinamide] | < 200 |
| COc1ccc(C2(O)C(=O)N(C[C@H]3CC[C@H](NC(=O)c4cc(Cl)cnc4C(F)F)CC3)c3ccccc32)cc1 (some centres unmarked) [Example 2, 5-chloro-2-(difluoromethyl)-N-((1r,4r)-4-((3-hydroxy-3-(4-methoxyphenyl)-2-oxoindolin-1-yl)methyl)cyclohexyl) nicotinamide] | < 200 |
| Cc1ccc2c(c1)N(C[C@H]1CC[C@H](NC(=O)c3cc(Cl)cnc3C(F)F)CC1)C(=O)C2(O)c1ccncc1F (some centres unmarked) [Example 149, 5-chloro-2-(difluoromethyl)-N-((1r,4r)-4-((3-(3-fluoropyridin-4-yl)-3-hydroxy-6-methyl-2-oxoindolin-1-yl)methyl)cyclohexyl) nicotinamide] | < 200 |
| O=C(N[C@H]1CC[C@H](CN2C(=O)C(O)(c3cccc(F)c3F)c3ccccc32)CC1)c1cc(Cl)cnc1C(F)F (some centres unmarked) [Example 40, 5-chloro-2-(difluoromethyl)-N-((1r,4r)-4-((3-(2,3-difluorophenyl)-3-hydroxy-2-oxoindolin-1-yl)methyl)cyclohexyl) nicotinamide] | < 200 |
| Cc1cccc(C2(O)C(=O)N(C[C@H]3CC[C@H](NC(=O)c4cc(Cl)cnc4C(F)F)CC3)c3ccccc32)c1 (some centres unmarked) [Example 49, 5-chloro-2-(difluoromethyl)-N-((1r,4r)-4-((3-hydroxy-2-oxo-3-(m-tolyl)indolin-1-yl)methyl)cyclohexyl) nicotinamide] | < 200 |
| O=C(N[C@H]1CC[C@H](CN2C(=O)C(O)(c3cccc(F)c3F)c3ccccc32)CC1)c1cc(Cl)cnc1Cl (some centres unmarked) [Example 167, 2,5-dichloro-N-((1r,4r)-4-((3-(2,3-difluorophenyl)-3-hydroxy-2-oxoindolin-1-yl)methyl)cyclohexyl) nicotinamide] | < 200 |
| O=C(N[C@H]1CC[C@H](CN2C(=O)C(O)(c3ccc(F)c(F)c3F)c3ccccc32)CC1)c1cc(Cl)cnc1C(F)F (some centres unmarked) [Example 135, 5-chloro-2-(difluoromethyl)-N-((1r,4r)-4-((3-hydroxy-2-oxo-3-(2,3,4-trifluorophenyl)indolin-1-yl)methyl)cyclohexyl) nicotinamide] | < 200 |
| O=C(N[C@H]1CC[C@H](CN2C(=O)C(O)(c3ccc(F)cc3F)c3ccccc32)CC1)c1cc(Cl)cnc1C(F)F (some centres unmarked) [Example 53, 5-chloro-2-(difluoromethyl)-N-((1r,4r)-4-((3-(2,4-difluorophenyl)-3-hydroxy-2-oxoindolin-1-yl)methyl)cyclohexyl) nicotinamide] | < 200 |
| O=C(N[C@H]1CC[C@H](CN2C(=O)C(O)(c3ccc(Cl)cn3)c3cc(F)ccc32)CC1)c1cc(Cl)cnc1C(F)F (some centres unmarked) [Example 125, 5-chloro-N-((1r,4r)-4-((3-(5-chloropyridin-2-yl)-5-fluoro-3-hydroxy-2-oxoindolin-1-yl)methyl)cyclohexyl)-2-(difluoromethyl)nicotinamide] | < 200 |
| O=C(N[C@H]1CC[C@H](CN2C(=O)C(O)(c3ccccc3F)c3ccccc32)CC1)c1cc(Cl)cnc1C(F)F (some centres unmarked) [Example 33, 5-chloro-2-(difluoromethyl)-N-((1r,4r)-4-((3-(2-fluorophenyl)-3-hydroxy-2-oxoindolin-1-yl)methyl)cyclohexyl) nicotinamide] | < 200 |
| Cc1cccc2c1C(O)(c1ccc(F)cn1)C(=O)N2C[C@H]1CC[C@H](NC(=O)c2cc(Cl)cnc2C(F)F)CC1 (some centres unmarked) [Example 178] | < 200 |
| COc1ccc(C2(O)C(=O)N(C[C@H]3CC[C@H](NC(=O)c4cc(Cl)cnc4C(F)F)CC3)c3ccccc32)c(F)c1 (some centres unmarked) [Example 54, 5-chloro-2-(difluoromethyl)-N-((1r,4r)-4-((3-(2-fluoro-4-methoxyphenyl)-3-hydroxy-2-oxoindolin-1-yl)methyl)cyclohexyl) nicotinamide] | < 200 |
| Cc1ncc(Cl)cc1C(=O)N[C@H]1CC[C@H](CN2C(=O)C(O)(c3cccc(F)c3F)c3cc(F)ccc32)CC1 (some centres unmarked) [Example 162, 5-chloro-N-((1r,4r)-4-((3-(2,3-difluorophenyl)-5-fluoro-3-hydroxy-2-oxoindolin-1-yl)methyl)cyclohexyl)-2-methylnicotinamide] | < 200 |
| COc1ccc(C2(O)C(=O)N(C[C@H]3CC[C@H](NC(=O)c4cc(Cl)cnc4C(F)F)CC3)c3ccccc32)s1 (some centres unmarked) [Example 99, 5-chloro-2-(difluoromethyl)-N-((1r,4r)-4-((3-hydroxy-3-(5-methoxythiophen-2-yl)-2-oxoindolin-1-yl)methyl)cyclohexyl) nicotinamide] | < 200 |
| O=C(N[C@H]1CC[C@H](CN2C(=O)C(O)(c3ccsc3)c3ccccc32)CC1)c1cc(Cl)cnc1C(F)F (some centres unmarked) [Example 92, 5-chloro-2-(difluoromethyl)-N-((1r,4r)-4-((3-hydroxy-2-oxo-3-(thiophen-3-yl)indolin-1-yl)methyl)cyclohexyl) nicotinamide] | < 200 |
